The target in one assay is T1, K-Ras G12C (Homo sapiens, UniProt P01116, G12C).
T1 construct: This protein contained 188 amino acids in total, including an N-terminal 6-Histidine tag; made in house; host or cells: E. coli BL21
Description: CAF assay (% CAF; method in Example 7, not in this part). Format: binding. The note with it: 10 uM compound, 1 h incubation.
On to `C=CC(=O)N1[C@H](C)CN(c2nc(=O)n3c4c(c(-c5cc(Cl)c(F)cc5F)c(C(F)(F)F)cc24)SC[C@@H]3CN2CCC3(CC2)COC3)C[C@@H]1C` (atropisomer, axis not shown) [Example 565, (3S,10S)-3-((2-oxa-7-azaspiro[3.5]nonan-7-yl)methyl)-7-((3S,5R)-4-acryloyl-3,5-dimethylpiperazin-1-yl)-10-(5-chloro-2,4-difluorophenyl)-9-(trifluoromethyl)-2,3-dihydro-5H-[1,4]thiazino[2,3,4-ij]quinazolin-5-one], for which the “% CAF @ 10 uM, 1h” value is 48.3%. In the case of `C=CC(=O)N1[C@H](C)CN(c2nc(=O)n3c4c(c(-c5ccc(F)cc5F)c(C(F)(F)F)cc24)SC[C@@H]3COC)C[C@@H]1C` (atropisomer, axis not shown) [Example 547, (3S,10R)-7-((3S,5R)-4-acryloyl-3,5-dimethylpiperazin-1-yl)-10-(2,4-difluorophenyl)-3-(methoxymethyl)-9-(trifluoromethyl)-2,3-dihydro-5H-[1,4]thiazino[2,3,4-ij]quinazolin-5-one], the “% CAF @ 10 uM, 1h” value came to 96.7%. For the compound `C=CC(=O)N1CCN(c2nc(=O)n3c4c(c(-c5ccc(F)cc5F)c(C(F)(F)F)cc24)S[C@H](COC)C3)[C@@H](C)C1` [Example 507, (2S)-7-((S)-4-acryloyl-2-methylpiperazin-1-yl)-10-(2,4-difluorophenyl)-2-(methoxymethyl)-9-(trifluoromethyl)-2,3-dihydro-5H-[1,4]thiazino[2,3,4-ij]quinazolin-5-one], the “% CAF @ 10 uM, 1h” value turned out to be 71%. As for `C=CC(=O)N1C[C@H](C)N(c2nc(=O)n3c4c(c(-c5cc(Cl)c(F)cc5F)c(C(F)(F)F)cc24)SC[C@@H]3CN2CCN(CC(F)F)CC2)C[C@H]1C` (atropisomer, axis not shown) [Example 557, (3S,10S)-7-((2S,5R)-4-acryloyl-2,5-dimethylpiperazin-1-yl)-10-(5-chloro-2,4-difluorophenyl)-3-((4-(2,2-difluoroethyl)piperazin-1-yl)methyl)-9-(trifluoromethyl)-2H-[1,4]thiazino[2,3,4-ij]quinazolin-5(3H)-one], the “% CAF @ 10 uM, 1h” value stood at 21.2%.

As for `C=CC(=O)N1[C@H](C)CN(c2nc(=O)n3c4c(c(-c5ccc(F)cc5)c(C(F)(F)F)cc24)SC[C@@H](OC)C3)C[C@@H]1C` [Example 585, (S)-8-((3S,5R)-4-acryloyl-3,5-dimethylpiperazin-1-yl)-11-(4-fluorophenyl)-3-methoxy-10-(trifluoromethyl)-3,4-dihydro-2H,6H-[1,4]thiazepino[2,3,4-ij]quinazolin-6-one], the “% CAF @ 10 uM, 1h” value is 97%. As for `C=CC(=O)N1C[C@H](C)N(c2nc(=O)n3c4c(c(-c5cc(Cl)c(F)cc5F)c(Cl)cc24)SC[C@@H]3CC2CCN(C3CC3)CC2)C[C@H]1C` [Example 467, (3S)-7-((2S,5R)-4-acryloyl-2,5-dimethylpiperazin-1-yl)-9-chloro-10-(5-chloro-2,4-difluorophenyl)-3-((1-cyclopropylpiperidin-4-yl)methyl)-2H-[1,4]thiazino[2,3,4-ij]quinazolin-5(3H)-one], the “% CAF @ 10 uM, 1h” value amounted to 44.3%. As for `C=CC(=O)N1CCN(c2nc(=O)n3c4c(c(-c5cc(F)c(F)cc5F)c(Cl)cc24)SC[C@H]3COCOC)[C@@H](C)C1` [Example 466, (3R)-7-((S)-4-acryloyl-2-methylpiperazin-1-yl)-9-chloro-3-((methoxymethoxy)methyl)-10-(2,4,5-trifluorophenyl)-2H-[1,4]thiazino[2,3,4-ij]quinazolin-5(3H)-one], the “% CAF @ 10 uM, 1h” value came to 22.6%. As to `C=CC(=O)N1C[C@H](C)N(c2nc(=O)n3c4c(c(-c5cc(F)c(F)cc5F)c(Cl)cc24)SC[C@@H]3CC2CCN(C3CC3)CC2)C[C@H]1C` [Example 475, (3S)-7-((2S,5R)-4-acryloyl-2,5-dimethylpiperazin-1-yl)-9-chloro-3-((1-cyclopropylpiperidin-4-yl)methyl)-10-(2,4,5-trifluorophenyl)-2H-[1,4]thiazino[2,3,4-ij]quinazolin-5(3H)-one], the “% CAF @ 10 uM, 1h” value amounted to 49.8%.

As for `C=CC(=O)N1C[C@H](C)N(c2nc(=O)n3c4c(c(-c5ccc(F)cc5F)c(C(F)(F)F)cc24)SC[C@@H]3CN2CCN(CC(F)F)CC2)C[C@H]1C` [Example 562, (3S)-7-((2S,5R)-4-acryloyl-2,5-dimethylpiperazin-1-yl)-3-((4-(2,2-difluoroethyl)piperazin-1-yl)methyl)-10-(2,4-difluorophenyl)-9-(trifluoromethyl)-2H-[1,4]thiazino[2,3,4-ij]quinazolin-5(3H)-one], the “% CAF @ 10 uM, 1h” value is on record as 83.6%.

Still in this assay, the particulars now being: 10 uM, 60 min; Table 2a.
With `C[C@H]1CN(C(=O)/C=C/C(F)F)CCN1c1nc(=O)n2c3c(c(-c4cc(F)cc(F)c4)c(Cl)cc13)SCC2` [Example 67, (S,E)-9-chloro-7-(4-(4,4-difluorobut-2-enoyl)-2-methylpiperazin-1-yl)-10-(3,5-difluorophenyl)-2,3-dihydro-5H-[1,4]thiazino[2,3,4-ij]quinazolin-5-one], the “% CAF 10 uM @ 60 min” value is on record as 87%.

Staying with this assay, now noted: 10 uM, 1 h; Table 3.
In the case of `C=CC(=O)N1CCN(c2nc(=O)n3c4c(c(-c5ccc(F)cc5F)c(Cl)cc24)SC(C)(C)C3)[C@@H](C)C1` [Example 75, 7-((S)-4-acryloyl-2-methylpiperazin-1-yl)-9-chloro-10-(2,4-difluorophenyl)-2,2-dimethyl-2,3-dihydro-5H-[1,4]thiazino[2,3,4-ij]quinazolin-5-one], the “% CAF @ 10 uM, 1h” value came out at 86.8%. Consider `C=CC(=O)N1CCN(c2nc(=O)n3c4c(c(-c5c(F)cc(F)cc5F)c(Cl)cc24)SC[C@@H]3CCCN2C[C@@H]3C[C@H]2CO3)[C@@H](C)C1` [Example 109, (S)-3-(3-((1S,4S)-2-oxa-5-azabicyclo[2.2.1]heptan-5-yl)propyl)-7-((S)-4-acryloyl-2-methylpiperazin-1-yl)-9-chloro-10-(2,4,6-trifluorophenyl)-2,3-dihydro-5H-[1,4]thiazino[2,3,4-ij]quinazolin-5-one], for which the “% CAF @ 10 uM, 1h” value is on record as 96.9%. Same read-out and setting: with `C=CC(=O)N1CCN(c2nc(=O)n3c4c(c(-c5ccc(F)cc5F)c(CC)cc24)SCC3)[C@@H](C)C1` [Example 114, 7-((S)-4-acryloyl-2-methylpiperazin-1-yl)-10-(2,4-difluorophenyl)-9-ethyl-2,3-dihydro-5H-[1,4]thiazino[2,3,4-ij]quinazolin-5-one] the figure was 92.8%; with `C=CC(=O)N1C2CC(=O)CC1CN(c1nc(=O)n3c4c(c(-c5ccc(F)cc5F)c(C(F)(F)F)cc14)SCC3)C2` [Example 101, 7-(9-acryloyl-7-oxo-3,9-diazabicyclo[3.3.1]nonan-3-yl)-10-(2,4-difluorophenyl)-9-(trifluoromethyl)-2,3-dihydro-5H-[1,4]thiazino[2,3,4-ij]quinazolin-5-one], 96.5%; with `C=CC(=O)N1CCN(c2nc(=O)n3c4c(c(-c5cccc6ccncc56)c(Cl)cc24)SCC3)[C@@H](C)C1` [Example 71, 7-((S)-4-acryloyl-2-methylpiperazin-1-yl)-9-chloro-10-(isoquinolin-8-yl)-2,3-dihydro-5H-[1,4]thiazino[2,3,4-ij]quinazolin-5-one], 87.8%. On to `C=CC(=O)N1CCN(c2nc(=O)n3c4c(c(-c5ccc(F)cc5F)c(Cl)cc24)SCC3)[C@@H](C)C1` [Example 179, (S)-7-((S)-4-acryloyl-2-methylpiperazin-1-yl)-9-chloro-10-(2,4-difluorophenyl)-2,3-dihydro-5H-[1,4]thiazino[2,3,4-ij]quinazolin-5-one], for which the “% CAF @ 10 uM, 1h” value is 96%. As to `C=CC(=O)N1CCN(c2nc(=O)n3c4c(c(-c5c(F)cc(F)cc5F)c(Cl)cc24)SC[C@H]3COC)[C@@H](C)C1` [Example 137, (R)-7-((S)-4-acryloyl-2-methylpiperazin-1-yl)-9-chloro-3-(methoxymethyl)-10-(2,4,6-trifluorophenyl)-2,3-dihydro-5H-[1,4]thiazino[2,3,4-ij]quinazolin-5-one], the “% CAF @ 10 uM, 1h” value is given as 86.8%. With `C=CC(=O)N1CCN(c2nc(=O)n3c4c(c(-c5c(F)cc(F)cc5F)c(Cl)cc24)SC[C@H]3CC2CCN(C)CC2)[C@@H](C)C1` [Example 91, (R)-7-((S)-4-acryloyl-2-methylpiperazin-1-yl)-9-chloro-3-((1-methylpiperidin-4-yl)methyl)-10-(2,4,6-trifluorophenyl)-2,3-dihydro-5H-[1,4]thiazino[2,3,4-ij]quinazolin-5-one], the “% CAF @ 10 uM, 1h” value turned out to be 94.8%. For the compound `C[C@H]1CN(C(=O)/C=C/C(F)F)CCN1c1nc(=O)n2c3c(c(-c4cc(F)cc(F)c4)c(Cl)cc13)SCC2` [Example 67, (S,E)-9-chloro-7-(4-(4,4-difluorobut-2-enoyl)-2-methylpiperazin-1-yl)-10-(3,5-difluorophenyl)-2,3-dihydro-5H-[1,4]thiazino[2,3,4-ij]quinazolin-5-one], the “% CAF @ 10 uM, 1h” value is 91%.

As for `C=CC(=O)N1CC2CC(C1)N2c1nc(=O)n2c3c(c(-c4ccc(F)cc4F)c(Cl)cc13)SCC2` [Example 135, 7-(3-acryloyl-3,6-diazabicyclo[3.1.1]heptan-6-yl)-9-chloro-10-(2,4-difluorophenyl)-2,3-dihydro-5H-[1,4]thiazino[2,3,4-ij]quinazolin-5-one], the “% CAF @ 10 uM, 1h” value is listed as 0%. The same measure, in the same setting: the value for `C=CC(=O)N1CCN(c2nc(=O)n3c4c(c(-c5ccc(F)cc5F)c(Cl)cc24)SCC3)[C@H](CS(C)(=O)=O)C1` [Example 188, 7-((S)-4-acryloyl-2-((methylsulfonyl)methyl)piperazin-1-yl)-9-chloro-10-(2,4-difluorophenyl)-2,3-dihydro-5H-[1,4]thiazino[2,3,4-ij]quinazolin-5-one] was 89.2%.

On to `C=CC(=O)N1C2CC1CN(c1nc(=O)n3c4c(c(-c5ccc(F)cc5F)c(Cl)cc14)SCC3)C2` [Example 165, 7-(6-acryloyl-3,6-diazabicyclo[3.1.1]heptan-3-yl)-9-chloro-10-(2,4-difluorophenyl)-2,3-dihydro-5H-[1,4]thiazino[2,3,4-ij]quinazolin-5-one], for which the “% CAF @ 10 uM, 1h” value worked out at 16.9%.

The same assay, now with this note: 10 μM, 1 h; Table 4.
Consider `C=CC(=O)N1CCN(c2nc(=O)n3c4c(c(-c5ccc(F)cc5F)c(Cl)cc24)SC[C@H]3CC2CCN(CC(F)F)CC2)[C@@H](C)C1` [Example 348, (3R)-7-((S)-4-acryloyl-2-methylpiperazin-1-yl)-9-chloro-3-((1-(2,2-difluoroethyl)piperidin-4-yl)methyl)-10-(2,4-difluorophenyl)-2H-[1,4]thiazino[2,3,4-ij]quinazolin-5(3H)-one], for which the “% CAF @ 10 μM, 1 h” value is 92%. On to `C=CC(=O)N1CCN(c2nc(=O)n3c4c(c(-c5c(F)cc(F)cc5F)c(Cl)cc24)SC[C@H]3COC)[C@@H](C)C1` [Example 137, (R)-7-((S)-4-acryloyl-2-methylpiperazin-1-yl)-9-chloro-3-(methoxymethyl)-10-(2,4,6-trifluorophenyl)-2,3-dihydro-5H-[1,4]thiazino[2,3,4-ij]quinazolin-5-one], for which the “% CAF @ 10 μM, 1 h” value turned out to be 86.8%.

Values taken from US20230107642A1 (Erasca, Inc., priority 2020, published 2023).
